What was measured:
[1] = system: mammary cancer (tubulo-pillaryadenocarcinoma or mixed-type tumour); assay: Gallium chloride therapy in bitches with mammary cancer (primary tumour or recurrence); format: in vivo, female dogs
Protocol: The anti-tumoral effect of gallium chloride was firstly studied in female dogs having spontaneous malignant tumours of the breast. Gallium chloride therapy was carried out in bitches having a mammary cancer (tubulo-pillaryadenocarcinoma or mixed-type tumour); treatment started either at the stage of the primary tumour (4 bitches) or upon a recurrence after a surgical excision (10 bitches).
(1) In the 4 bitches treated at the primary tumour stage, the following was observed:
In two cases, the treatment was continued for two months, the tumour reducing from 10×7 cm to 8.5×7 cm in one case and from 1.5×1.3 to 1.5×1.0 cm in the other case.
In the third case, the treatment could be continued for more than six months in a very old bitch of 14 years.
(2) In the 10 bitches treated at the recurrence stage, the following was observed: […]

malignant melanoma = assay: 3rd patient: gallium chloride treatment, tumour response; format: in vivo, human
Excerpt: On Sept. […] This was the case. . . […] Up to Nov. […] It was from Sept.

[2] = system: adenocarcinoma of the colon; assay: 4th patient: gallium chloride treatment, tumour response; format: in vivo, human
Excerpt: A person . . . […] On Oct. […] An exploratory laparotomy was made on Nov. […] 7th, 1982.

[3] = system: epidermoid carcinoma of the oesophagus; assay: 5th patient: gallium chloride treatment, tumour response; format: in vivo, human
Excerpt: A person . . . Michel: the diagnosis of differenciated, mature and infiltrating epidermoid carcinoma of the oesophagus was made on Sept. 3rd, 1981. This was a voluminous tumour, extending from 23 to 32 cm, from the dental arches (according to the data from the endoscopy) with an invasion of the rear face of the origin of the left principal bronchus and the carina tracheae. In the bronchoscopy of Sept. 8th, 1981, there was a necrotic tumoral bud obstructing the light of the bronchus by two-thirds.
(§1) Gallium chloride therapy was started on Sept.
A further bronchoscopy was made on Oct. […] The existence of a considerable sub-jacent bronchial stasis and of daily dispnoeic attacks in the evening led to treatment of this bronchial tumour by laser on Oct. 20th, 1981. […] Feeding by the oral route was stopped, as well as the gallium chloride treatment and, after parenteral feeding, a celestine prosthesis was positioned by endoscopic route on Nov. 3rd, 1981. The sequels of the positioning of the prosthesis was marked by the appearance of an infectious bronchial syndrome which led to death of the patient on Nov. 18th, 1981.

[4] = Clinical and biological tolerance in patients
Protocol: Mrs. […] Post-operative chemotherapy (5-fluoro-uracil and endoxan) was then effected up to April 1979. At that time, […] underwent a second operation with excision of the remaining cervix and omentectomy. […] Cobalt therapy was then carried out from Nov. 5th, 1979 to Feb. 5th, 1980 on the abdomen, pelvis and diaphragm cupolas, then further chemotherapy (hexamethylmelamine) from August to October 1980. […] Treatment by gallium chloride started on Nov. 1 st, 1980 at the posology of 300 mg per day per os in three doses of 100 mg. […] An echotomograph on Dec. […] A third echotomograph was made on Jan. […] On Mar.
The treatment by gallium chloride was started on May 15th, 1981, at the posology of 600 mg/24 hours up to Sept. 20th, 1981, in association with a heparinotherapy at mini-doses. This heparinotherapy had been prescribed to prevent a phlebitis or pulmonary embolism following the surgical operation of April 1981 and had not been interrupted in order not to provoke the phenomenon of tumoral flare-up. [Calciparin (heparin calcium salt) 0.2 ml, 3 times per day by sub-cutaneous route]. […] On Sept. […] This was the case. . . […] 29th, 1981. […] Up to Nov. […] It was from Sept.
HOT... […] , was operated on May 14th, 1981 for an adenocarcinoma of the colon. […] An almost total colectomy was carried out, leaving 20 cm of sigmoid and a resection of the small bowel over a length of 15 cm. […] On Oct. […] An exploratory laparotomy was made on Nov. […] 7th, 1982.
as §1

[5] = system: left axillary lymphadenopathy; assay: 2nd patient: gallium chloride treatment, tumour response
Excerpt: A complete check-up to seek primary localisation was undertaken. In view of the negative nature of this check-up, the diagnosis of cutaneous primary tumour, developed at the expense of the cutaneous appendants (eccrine tumour) was retained.

[6] = therapy continued up to Nov. 10th, 1981
[7] = 800 mg/24 hours oral, one month

SMILES: [Cl][Ga]([Cl])[Cl] [gallium chloride]
- results in mammary tumours in the bitch ([1]; 5 mg/kg, if duration of treatment extended): good results
- regression of the tumour, overall ([1]; 5 mg/kg, tumour becomes very hard): Regression of the tumour remains weak
- regression of the tumour (primary tumour stage) ([1]; 4 bitches treated at primary tumour stage): a regression of the tumour in the other three cases
- death (primary tumour stage) ([1]; 4 bitches treated at primary tumour stage, 1 to 5 mg/kg oral): one death on the 7th day
- complete remission ([1]; 10 bitches at recurrence stage, recurrent tumour smaller than 0.6 cm at beginning, two months of treatment): three complete remissions after two months of treatment
- partial regression of the tumour ([1]; 10 bitches at recurrence stage, three months of treatment): in 5 bitches, a partial regression of the tumour with hardening thereof
- death (recurrence stage) ([1]; 10 bitches treated at recurrence stage): one death in the third week of treatment, due to a pulmonary metastasis
- biopsies / histology at the end of the treatment ([1]; recurrence stage): tumoral cells persisted, but a histological study suggested an increase in the amorphous ground substance with a cellular rarefaction
- tumour growth in one bitch ([1]; recurrence stage, 1 mg/kg one month, 2.5 mg/kg fifteen days, 5 mg/kg last fifteen days): persistent growth of the tumour in one bitch
- survival ([1]; therapeutic strategy with surgical treatment after gallium chloride): seven out of eight bitches are alive
- tumour response after resumption of the treatment ([1]; third case, bitch of 14 years, 2.5 mg/kg, then 1 mg/kg): regressed after resumption of the treatment
- tumour development during first two months of treatment ([1]; third case, bitch of 14 years, 5 mg/kg, tumour 3.6×2 cm, doubled in four months preceding treatment): did not develop
- general state up to Sept. 20th, 1981, 3rd patient (malignant melanoma; 600 mg/24 hours with Calciparin): satisfactory, with a good appetite
- general state / metastases after Calciparin interruption, 3rd patient (malignant melanoma; gallium chloride increased to 800 mg/24 hours from Sept. 29th, 1981): general state rapidly worsened, with appearance of a metastatic hepatomegaly of which the volume increased rapidly
- prevention of recurrence, 4th patient ([2]; 300 ng per day (so in the source), up to Nov. 10th, 1981): insufficient
- carcinoembryonic antigen rates, 4th patient, Oct. 15th, 1981 ([2]; 300 mg/24 hours oral): 9 ng/mL
- carcinoembryonic antigen rates, first 4 months, 4th patient ([2]; 500 then 300 mg/24 hours oral): normal
- general state, first 4 months, 4th patient ([2]; 500 then 300 mg/24 hours oral): very satisfactory
- exploratory laparotomy, 4th patient ([2]; Nov. 12th, 1981): an indissectable ileomesenteric block and hepatic granulations distributed like grains of rice over the whole of the two lobes of the liver
- carcinoembryonic antigen rates, 4th patient, Nov. 26th, 1981 [2, 6]: 97 ng/mL
- death, 4th patient [2, 6]: death occured on Jan. 7th, 1982
- bronchial obstruction, bronchoscopy Oct. 13th, 1981, 5th patient ([3]; 800 mg/24 hours oral from Sept. 21st, 1981): the same bronchial obstruction
- death, 5th patient ([3]; infectious bronchial syndrome after prosthesis, treatment already stopped): death of the patient on Nov. 18th, 1981
- clinical and biological tolerance, 1st patient ([4]; 300 mg per day per os, two months uninterrupted): good
- renal, hepatic, blood cells count disturbance, 5th patient [4, 7]: no renal nor hepatic disturbance nor disturbances in the blood cells count
- tolerance, 5th patient [4, 7]: tolerated perfectly well, both from the clinical and biological point of view
- anorexia leading to stop of therapy, 3rd patient ([4]; 800 mg/24 hours, from Nov. 27th, 1981): virtually total anorexia
- tolerance, 4th patient ([4]; 500 then 300 mg/24 hours oral, without renal disorders): perfect clinically and biologically (without renal disorders in particular)
- blood cells count, hepatic balance, calcemia, phosphatemia, 2nd patient ([4]; Jan. 6th, 1982): normal
- general state, 2nd patient ([4]; Jan. 6th, 1982): good, with a normal appetite
- inflammatory balance (haptoglobin), 2nd patient ([4]; Jan. 6th, 1982): normal
- creatinine, 2nd patient ([4]; Jan. 6th, 1982, normal): 88.50 µmol/L
- tolerance, 2nd patient ([4]; Jan. 6th, 1982, oral since May 20th, 1981): perfectly well tolerated, without any digestive disorders or neurological, cardiac or cutaneous effects
- weight, 2nd patient ([4]; Jan. 6th, 1982, unchanged since beginning of treatment): 71 kg
- tolerance of 800 mg/24 hours, 3rd patient ([4]; Sept. 29th to Nov. 27th, 1981): tolerated up to Nov. 27th, 1981
- digestive intolerance leading to interruption, 1st patient ([4]; after Mar. 20th, 1981): had to be interrupted due to digestive intolerance
- renal function and blood cells count, 3rd patient ([4]; up to Nov. 27th, 1981): normal
- weight, 3rd patient ([4]; up to Sept. 20th, 1981, 600 mg/24 hours with Calciparin, stable): 70 kg
- hardness of lymphadenopathy, July 23rd, 1981 ([5]; 300 mg per day oral): much harder
- lymphadenopathy, Jan. 6th, 1982 ([5]; 600 mg and 300 mg alternately, oral): no longer perceptible
- diameter of lymphadenopathy, Dec. 8th, 1981 ([5]; 600 mg per day oral): 1 cm in diameter
- dorsal osseous pains, 2nd patient ([5]; Jan. 6th, 1982): dorsal osseous pains persisted, but of mechanical type, completely calmed by rest
- regression of the lymphadenopathy ([5]; oral from May 20th, 1981, from end of July 1981): progressive regression of the lymphadenopathy

Source: patent publication US4596710A, “Gallium chloride as a new anti-cancerous drug” (priority 1981, dated 1986)
